Data taken from patent US9394297B2, “Amides as pim inhibitors” (AMGEN INC., priority 2012, dated 2016).
Structures can show the parent of a compound that is named as a salt.

Legend:
Pim-1 = Pim-1 (Homo sapiens (Human), UniProt P11309); test: Pim enzyme assay (HTRF, 96-well), Pim-1; format: biochemical; details: full length recombinant Pim-1, biotinylated-BAD (S112) peptide, 10-point curve, 2 h RT, read-out: Pim-1 IC50 IP
Excerpt: (§1) These cDNAs were used as templates in PCR reactions to produce full-length DNA clones of the PIMs. […] PCR products were digested with BclI and EcoRI for Pim-1 and BamHI and EcoRI for Pim-2 and ligated into a modified baculovirus transfer vector (pFastBac1) cleaved with BamHI and EcoRI. For bacterial expression, the same cleaved PCR products encoding Pim-1 or Pim-2 were ligated into a modified E. coli expression vector pET28(a) cleaved with BamHI and EcoRI. Amino-terminal hexahistidine tags followed by a thrombin cleavage site were previously added to the vectors using standard methods of molecular biology.
(§2) Recombinant baculoviruses expressing Pim-1 or Pim-2 were made using standard methods (Fastbac manual, Invitrogen, Carlsbad, Calif.). […] Cells were harvested by centrifugation and frozen at −80 C. For E. coli expression, cells carrying pET28-His6-Th-Pim-1 or pET28-His6-Th-Pim-2 were picked from a single colony and grown o/n in LB media. The o/n culture was used to inoculate a 2 liter flask with 500 mL media. This was grown o/n and used to inoculate 15-20 liters of Terrific Broth in a New Brunswick Scientific fermentor. The E. coli were grown at 37° C. to and OD600 >1.6. The temperature was dropped to 18° C. and o/n expression was induced with 0.5 mM IPTG. Cells were harvested by centrifugation and frozen at −80° C.
(§3) The slurry was centrifuged at 1,000×g for 5 min, the supernatant decanted, and the resin suspended in 40 mL of lysis wash buffer (lysis buffer at 0.75 M NaCl). This step was repeated 3× and the resin was transferred to a 2.5 cm glass column. Ten column volumes of wash buffer (0.05 M HEPES, pH 8.0, 0.1 M NaCl, 0.01 M 2-mercaptoethanol, 10%(w/v) glycerol) were applied to the resin followed by 10 column volumes of elution buffer (0.05 M HEPES, pH 8.0, 0.25 M NaCl, 0.01 M 2-mercaptoethanol, 10%(w/v) glycerol, 0.1 M imidazole). Fractions were analyzed by SDS-PAGE and those containing the protein of interest were pooled and concentrated. The concentrated protein was applied to an Amersham Superdex 75 (XK 26/60) column equilibrated in 0.025 M Tris-HCl, pH 7.5, 0.1 M NaCl, 0.01 M 2-mercaptoethanol, 10% (w/v) glycerol. […] Fractions containing the monomeric protein of interest were pooled, concentrated to ˜2 mg/mL, and stored at −80° C.
(§4) The phosphorylation of biotinylated-BAD (S112) peptide by full length recombinant Pim-1, Pim-2, or Pim-3 protein was detected with streptavidin:Allophycocyanin (APC) conjugate and a europium (Eu) labeled antibody directed against phosphorylated-BAD (S112). […] The fluorescence is directly proportional to the amount of phosphorylated BAD peptide present in the reaction. […] A reference compound was included on each assay plate in order to validate that plate; on one plate of every assay run, two additional reference compounds were included. The final buffer conditions were as follows: 60 mM Hepes, pH 7.0, 0.05% BSA, 2 mM DTT. Incubations were carried out at RT (22° C.) for 2 h for Pim-1, 1 hour and 30 min for Pim-3, and 45 min for Pim-2. The reaction was stopped by the addition of 3 mM EDTA, and fluorescence was measured by an HTRF® Rubystar microplate reader. For each plate, percent of control (POC) values were calculated for each well. Values for the IC50 IP were estimated using a standard 4-parameter logistic model.

Pim-2 = Pim-2 (Homo sapiens (Human), UniProt Q9P1W9); test: Pim enzyme assay (HTRF, 96-well), Pim-2; format: biochemical; details: full length recombinant Pim-2, biotinylated-BAD (S112) peptide, 10-point curve, 45 min RT, read-out: Pim-2 IC50 IP
Excerpt: as §1, §2, §3, §4

Pim-2, sequence (Q9P1W9 whole entry): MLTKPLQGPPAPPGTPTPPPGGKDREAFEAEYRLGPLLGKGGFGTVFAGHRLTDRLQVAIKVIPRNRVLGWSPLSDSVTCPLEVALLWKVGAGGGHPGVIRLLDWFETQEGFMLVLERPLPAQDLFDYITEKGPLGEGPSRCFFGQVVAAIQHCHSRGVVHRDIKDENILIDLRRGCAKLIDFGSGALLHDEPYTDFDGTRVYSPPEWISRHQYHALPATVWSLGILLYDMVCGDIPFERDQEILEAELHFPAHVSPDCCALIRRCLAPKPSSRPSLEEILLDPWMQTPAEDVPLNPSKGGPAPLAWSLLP
Pim-1, sequence (P11309 whole entry): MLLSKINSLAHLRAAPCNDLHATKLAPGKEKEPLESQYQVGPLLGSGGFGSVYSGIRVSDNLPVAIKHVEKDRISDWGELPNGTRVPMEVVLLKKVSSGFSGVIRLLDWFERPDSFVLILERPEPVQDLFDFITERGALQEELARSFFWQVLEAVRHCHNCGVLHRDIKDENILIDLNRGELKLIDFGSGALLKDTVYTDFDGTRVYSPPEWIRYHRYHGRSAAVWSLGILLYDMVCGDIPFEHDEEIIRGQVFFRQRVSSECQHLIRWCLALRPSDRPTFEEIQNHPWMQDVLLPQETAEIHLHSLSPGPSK

Structure (SMILES) | IC50 (Pim-1) [nM] | IC50 (Pim-2) [nM]
COC(=O)N(c1ccccc1)c1ccc2cccc(-c3cc4c([nH]3)CCNC4=O)c2n1 [Example 46, Methyl (8-(4-oxo-4,5,6,7-tetrahydro-1H-pyrrolo[3,2-c]pyridin-2-yl)-2-quinolinyl)phenylcarbamate] | 58.1 | 125
O=C1NCCc2[nH]c(-c3cccc4ccc(Oc5cccc(Cl)c5)nc34)cc21 [Example 41, 2-(2-(3-chlorophenoxy)-8-quinolinyl)-1,5,6,7-tetrahydro-4H-pyrrolo[3,2-c]pyridin-4-one] | 13.6 | 68
C[C@@H](Nc1ccc2cccc(-c3cc4c([nH]3)CCNC4=O)c2n1)c1ccccc1 [Example 111, (R)-2-(2-((1-phenylethyl)amino)quinolin-8-yl)-6,7-dihydro-1H-pyrrolo[3,2-c]pyridin-4(5H)-one] | 19 | 181
O=c1[nH]cnc2[nH]c(-c3cccc4ccc(Oc5ccccc5)nc34)cc12 [Example 17, 6-(2-phenoxyquinolin-8-yl)-3H-pyrrolo[2,3-d]pyrimidin-4(7H)-one] | 34 | 80.2
O=C1NCCc2[nH]c(-c3cccc4ccc(-c5ccccc5)nc34)cc21 [Example 226, 2-(2-phenylquinolin-8-yl)-6,7-dihydro-1H-pyrrolo[3,2-c]pyridin-4(5H)-one] | 25.3 | 38.1
Cc1nc2cccc(-c3cc4c([nH]3)CCNC4=O)c2nc1N1CCCC1 [Example 138, 2-(2-methyl-3-(pyrrolidin-1-yl)quinoxalin-5-yl)-6,7-dihydro-1H-pyrrolo[3,2-c]pyridin-4(5H)-one] | 34.8 | 30.1
O=C1NCCc2[nH]c(-c3cccc4ccc(Oc5ccc(Cl)cc5)nc34)cc21 [Example 18, 2-(2-(4-chlorophenoxy)quinolin-8-yl)-6,7-dihydro-1H-pyrrolo[3,2-c]pyridin-4(5H)-one] | 15.5 | 44.9
O=C1NCCn2cc(-c3cccc4ccc(C(=O)N5CCOCC5)nc34)cc21 [Example 167, 7-(2-(morpholine-4-carbonyl)quinolin-8-yl)-3,4-dihydropyrrolo[1,2-a]pyrazin-1(2H)-one] | 671 | 667
Cc1cccc(C)c1Oc1ccc2cccc(-c3cc4c([nH]3)CCNC4=O)c2n1 [Example 101] | 19.8 | 80.9
O=C1NCCc2[nH]c(-c3cccc4ccc(Nc5cncnc5)nc34)cc21 [Example 13, 2-(2-(pyrimidin-5-ylamino)quinolin-8-yl)-6,7-dihydro-1H-pyrrolo[3,2-c]pyridin-4(5H)-one] | 0.8 | 2.8
CS(=O)(=O)c1ccc(-c2ccc3cccc(-c4cc5c([nH]4)CCNC5=O)c3n2)c(F)c1 [Example 86, 2-(2-(2-fluoro-4-(methylsulfonyl)phenyl)quinolin-8-yl)-6,7-dihydro-1H-pyrrolo[3,2-c]pyridin-4(5H)-one] | 49.5 | 143
O=c1[nH]ccc2[nH]c(-c3cccc4ccc(Oc5ccccc5)nc34)cc12 [Example 225, 2-(2-phenoxyquinolin-8-yl)-1H-pyrrolo[3,2-c]pyridin-4(5H)-one] | 15.9 | 43.7
O=c1[nH]cnc2[nH]c(-c3cccc4ccc(Cl)nc34)cc12 [Example 19, 6-(2-chloroquinolin-8-yl)-3H-pyrrolo[2,3-d]pyrimidin-4(7H)-one trifluoroacetate] | 133 | 908
N[C@@H]1CCC[C@H](Nc2ccc3cccc(-c4cc5c([nH]4)CCNC5=O)c3n2)C1 (single isomer, unassigned) [Example 121, 2-(2-((cis-3-aminocyclohexyl)amino)quinolin-8-yl)-6,7-dihydro-1H-pyrrolo[3,2-c]pyridin-4(5H)-one] | 0.6 | 22.6
O=C1NCCc2[nH]c(-c3cccc4cnc(Oc5ccccc5)nc34)cc21 [Example 236, 2-(2-phenoxyquinazolin-8-yl)-6,7-dihydro-1H-pyrrolo[3,2-c]pyridin-4(5H)-one 2,2,2-trifluoroacetate] | 34.2 | 40.2
O=c1[nH]ccc2[nH]c(-c3cccc4ccc(Nc5c(F)cccc5Cl)nc34)cc12 [Example 12, 2-(2-((2-chloro-6-fluorophenyl)amino)quinolin-8-yl)-1H-pyrrolo[3,2-c]pyridin-4(5H)-one] | 2 | 11
COC(=O)[C@H](C)Nc1nc2c(-c3cc4c([nH]3)CCNC4=O)cccc2nc1C [Example 136, (S)-methyl 2-((3-methyl-8-(4-oxo-4,5,6,7-tetrahydro-1H-pyrrolo[3,2-c]pyridin-2-yl)quinoxalin-2-yl)amino)propanoate] | 49.5 | 154
O=C1NCCc2[nH]c(-c3cccc4ccc(Nc5cccc(Cl)c5)nc34)cc21 [Example 40, 2-(2-((3-chlorophenyl)amino)-8-quinolinyl)-1,5,6,7-tetrahydro-4H-pyrrolo[3,2-c]pyridin-4-one] | 1.8 | 14.3
O=C1NCCc2[nH]c(-c3cccc4ccc(OCc5ccccc5)nc34)cc21 [Example 20, 2-(2-(benzyloxy)quinolin-8-yl)-6,7-dihydro-1H-pyrrolo[3,2-c]pyridin-4(5H)-one] | 38.5 | 98.4
O=c1[nH]ccc2[nH]c(-c3cccc4ccc(Nc5ccccc5)nc34)nc12 [Example 189, 2-(2-(phenylamino)quinolin-8-yl)-1H-imidazo[4,5-c]pyridin-4(5H)-one 2,2,2-trifluoroacetate] | 28.6 | 71.8
O=C1NCCc2[nH]c(-c3cccc4ccc(O[C@@H]5CCCNC5)nc34)cc21 [Example 89, (R)-2-(2-(piperidin-3-yloxy)quinolin-8-yl)-6,7-dihydro-1H-pyrrolo[3,2-c]pyridin-4(5H)-one] | 46.6 | 340
Cc1nc2cccc(-c3cc4c([nH]3)CCNC4=O)c2nc1N[C@@H](C)C(N)=O [Example 129, (S)-2-((3-methyl-8-(4-oxo-4,5,6,7-tetrahydro-1H-pyrrolo[3,2-c]pyridin-2-yl)quinoxalin-2-yl)amino)propanamide] | 99.3 | 227
O=C1NCCc2[nH]c(-c3cccc4ccc(-c5c(F)cccc5F)nc34)cc21 [Example 231, 2-(2-(2,6-difluorophenyl)quinolin-8-yl)-6,7-dihydro-1H-pyrrolo[3,2-c]pyridin-4(5H)-one] | 8.1 | 91.9
COC(=O)[C@@H](C)Nc1nc2c(-c3cc4c([nH]3)CCNC4=O)cccc2nc1C [Example 137, (R)-methyl 2-((3-methyl-8-(4-oxo-4,5,6,7-tetrahydro-1H-pyrrolo[3,2-c]pyridin-2-yl)quinoxalin-2-yl)amino)propanoate] | 96.7 | 74.1
O=C1NCCc2[nH]c(-c3cccc4ccc(Cl)nc34)cc21 [Example 1, 2-(2-chloroquinolin-8-yl)-6,7-dihydro-1H-pyrrolo[3,2-c]pyridin-4(5H)-one] | 315 | 636
